According to ChEMBL document CHEMBL1156794, “Synthesis and antimicrobial evaluation of amphiphilic neamine derivatives” (J Med Chem, 2010):
Converted amounts (≈) assume the structure as drawn.

Assays:
Staphylococcus aureus [1] = assay: Antibacterial activity against MsrA pump expressing Staphylococcus aureus after 24 hrs by geometric microdilution method; assay type: functional
Staphylococcus aureus [2] = assay: Antibacterial activity against aminoglycoside-6'-N-acetyltransferase/2''-O-phosphoryltransferase expressing Staphylococcus aureus after 24 hrs by geometric microdilution method; assay type: functional
Staphylococcus aureus [3] = assay: Antibacterial activity against aminoglycoside-3'-O-phosphoryltransferase expressing Staphylococcus aureus after 24 hrs by geometric microdilution method; assay type: functional
Staphylococcus aureus [4] = assay: Antibacterial activity against aminoglycoside-4'-O-phosphoryltransferase expressing Staphylococcus aureus after 24 hrs by geometric microdilution method; assay type: functional
Staphylococcus aureus [5] = assay: Antibacterial activity against Staphylococcus aureus ATCC 25923 after 24 hrs by geometric microdilution method; assay type: functional; conditions: ATCC 25923, 24 h
Staphylococcus aureus [6] = assay: Antibacterial activity against NorA pump expressing Staphylococcus aureus after 24 hrs by geometric microdilution method; assay type: functional
Staphylococcus aureus [7] = assay: Antibacterial activity against methicillin-resistant Staphylococcus aureus ATCC 33592 clinical isolate after 24 hrs by geometric microdilution method; assay type: functional; conditions: ATCC 33592, 24 h
Staphylococcus aureus [8] = assay: Antibacterial activity against vancomycin-resistant Staphylococcus aureus VRS-2 after 24 hrs by geometric microdilution method; assay type: functional; conditions: VRS-2, 24 h
Acinetobacter lwoffii [9] = assay: Antibacterial activity against […] expressing Acinetobacter lwoffii AI.88-483 after 24 hrs by geometric microdilution method; assay type: functional
Pseudomonas aeruginosa [10] = assay: Antibacterial activity against Pseudomonas aeruginosa ATCC 27853 after 24 hrs by geometric microdilution method; assay type: functional
Pseudomonas aeruginosa [11] = assay: Antibacterial activity against AAC6'-2a expressing Pseudomonas aeruginosa F03 after 24 hrs by geometric microdilution method; assay type: functional
Pseudomonas aeruginosa [12] = assay: Antibacterial activity against MexXY expressing Pseudomonas aeruginosa PT629 after 24 hrs by geometric microdilution method; assay type: functional
Klebsiella pneumoniae = assay: Antibacterial activity against Klebsiella pneumoniae ATCC 700603 after 24 hrs by geometric microdilution method; assay type: functional
Escherichia coli [13] = assay: Antibacterial activity against AAC6'-2b expressing Escherichia coli PAZ505H8101 after 24 hrs by geometric microdilution method; assay type: functional
Escherichia coli [14] = assay: Antibacterial activity against ANT2'-2a expressing Escherichia coli L58058.1 after 24 hrs by geometric microdilution method; assay type: functional
Pseudomonas aeruginosa [15] = assay: Antibacterial activity against Pseudomonas aeruginosa PAO1 after 24 hrs by geometric microdilution method; assay type: functional
Pseudomonas aeruginosa [16] = assay: Antibacterial activity against MexCD expressing Pseudomonas aeruginosa PA01 after 24 hrs by geometric microdilution method; assay type: functional
Pseudomonas aeruginosa [17] = assay: Antibacterial activity against MexEF expressing Pseudomonas aeruginosa PA03 after 24 hrs by geometric microdilution method; assay type: functional
Pseudomonas aeruginosa [18] = assay: Antibacterial activity against MexAB expressing Pseudomonas aeruginosa PA21 after 24 hrs by geometric microdilution method; assay type: functional
Pseudomonas aeruginosa [19] = assay: Antibacterial activity against MexXY expressing Pseudomonas aeruginosa PA22 after 24 hrs by geometric microdilution method; assay type: functional
Pseudomonas aeruginosa [20] = assay: Antibacterial activity against TriABC expressing MexAB, MexCD, MexEF, MexXY deleted Pseudomonas aeruginosa PA405 after 24 hrs by geometric microdilution method; assay type: functional
Pseudomonas aeruginosa [21] = assay: Antibacterial activity against MexAB, MexCD, MexEF, MexXY, TriABC deleted Pseudomonas aeruginosa PA406 after 24 hrs by geometric microdilution method; assay type: functional
Acinetobacter lwoffii [22] = assay: microbe, parasite or virus in culture; conditions: ATCC 17925, 24 h
Description: Antibacterial activity against Acinetobacter lwoffii ATCC 17925 after 24 hrs by geometric microdilution method

Escherichia coli [23] = assay: microbe, parasite or virus in culture; conditions: ATCC 25922, 24 h
Description: Antibacterial activity against Escherichia coli ATCC 25922 after 24 hrs by geometric microdilution method

Citrobacter amalonaticus = assay: Antibacterial activity against R-methylase expressing Citrobacter amalonaticus 06AB0010 after 24 hrs by geometric microdilution method; assay type: functional
Escherichia coli [24] = assay: Antibacterial activity against R-methylase expressing Escherichia coli 06AB003 after 24 hrs by geometric microdilution method; assay type: functional
Klebsiella aerogenes = assay: Antibacterial activity against R-methylase expressing Enterobacter aerogenes 06AB008 after 24 hrs by geometric microdilution method; assay type: functional

| Compound | MIC (Staphylococcus aureus [1]) [µg/mL] | MIC (Staphylococcus aureus [2]) [µg/mL] | MIC (Staphylococcus aureus [3]) [µg/mL] | MIC (Staphylococcus aureus [4]) [µg/mL] | MIC (Staphylococcus aureus [5]) [µg/mL] | MIC (Staphylococcus aureus [6]) [µg/mL] | MIC (Staphylococcus aureus [7]) [µg/mL] | MIC (Staphylococcus aureus [8]) [µg/mL] | MIC (Acinetobacter lwoffii [9]; AI.88-483, 24 h) [µg/mL] | MIC (Pseudomonas aeruginosa [10]; ATCC 27853, 24 h) [µg/mL] | MIC (Pseudomonas aeruginosa [11]; F03, 24 h) [µg/mL] | MIC (Pseudomonas aeruginosa [12]; PT629, 24 h) [µg/mL] | MIC (Klebsiella pneumoniae; ATCC 700603, 24 h) [µg/mL] | MIC (Escherichia coli [13]; PAZ505H8101, 24 h) [µg/mL] | MIC (Escherichia coli [14]; L58058.1, 24 h) [µg/mL] | MIC (Pseudomonas aeruginosa [15]; PAO1, 24 h) [µg/mL] | MIC (Pseudomonas aeruginosa [16]; PA01, 24 h) [µg/mL] | MIC (Pseudomonas aeruginosa [17]; PA03, 24 h) [µg/mL] | MIC (Pseudomonas aeruginosa [18]; PA21, 24 h) [µg/mL] | MIC (Pseudomonas aeruginosa [19]; PA22, 24 h) [µg/mL] | further results |
| --- | --- | --- | --- | --- | --- | --- | --- | --- | --- | --- | --- | --- | --- | --- | --- | --- | --- | --- | --- | --- | --- |
| NC[C@H]1O[C@H](O[C@H]2[C@H](O)[C@@H](OCc3ccccc3)[C@H](N)C[C@@H]2N)[C@H](N)[C@@H](OCc2ccccc2)[C@@H]1O | > 128 | > 128 | > 128 | > 128 | > 128 | > 128 |  |  |  |  |  |  |  |  |  |  |  |  |  |  |  |
| NC[C@H]1O[C@H](O[C@H]2[C@H](OCc3ccc4ccccc4c3)[C@@H](O)[C@H](N)C[C@@H]2N)[C@H](N)[C@@H](O)[C@@H]1OCc1ccc2ccccc2c1 | 128 (≈ 212 µM) | 128 (≈ 212 µM) | 32 (≈ 53.1 µM) | 128 (≈ 212 µM) | 64 (≈ 106 µM) | 128 (≈ 212 µM) | 64 (≈ 106 µM) | 64 (≈ 106 µM) | > 128 | 128 (≈ 212 µM) | > 128 | > 128 | > 128 | 128 (≈ 212 µM) | 128 (≈ 212 µM) | > 128 | > 128 | > 128 | > 128 | > 128 | MIC (Pseudomonas aeruginosa [20]; PA405, 24 h): 16 µg/mL (≈ 26.5 µM); MIC (Pseudomonas aeruginosa [21]; PA406, 24 h): 16 µg/mL (≈ 26.5 µM); MIC (Acinetobacter lwoffii [22]): 32 µg/mL (≈ 53.1 µM); MIC (Escherichia coli [23]): 128 µg/mL (≈ 212 µM) |
| NC[C@H]1O[C@H](O[C@H]2[C@H](O)[C@@H](OCc3ccccn3)[C@H](N)C[C@@H]2N)[C@H](N)[C@@H](OCc2ccccn2)[C@@H]1O | > 128 | > 128 | > 128 | > 128 | > 128 | > 128 |  |  |  |  |  |  |  |  |  |  |  |  |  |  |  |
| NC[C@H]1O[C@H](O[C@H]2[C@H](O)[C@@H](OCc3ccc4ccccc4n3)[C@H](N)C[C@@H]2N)[C@H](N)[C@@H](OCc2ccc3ccccc3n2)[C@@H]1OCc1ccc2ccccc2n1 | > 128 | 128 (≈ 172 µM) | 64 (≈ 85.8 µM) | > 128 | 128 (≈ 172 µM) | > 128 | 64 (≈ 85.8 µM) | 64 (≈ 85.8 µM) | > 128 | > 128 | > 128 | > 128 | > 128 | > 128 | > 128 | > 128 | > 128 | > 128 | > 128 | > 128 | MIC (Pseudomonas aeruginosa [20]; PA405, 24 h): 64 µg/mL (≈ 85.8 µM); MIC (Pseudomonas aeruginosa [21]; PA406, 24 h): 64 µg/mL (≈ 85.8 µM); MIC (Acinetobacter lwoffii [22]): 128 µg/mL (≈ 172 µM); MIC (Escherichia coli [23]): > 128 µg/mL |
| NC[C@H]1O[C@H](O[C@H]2[C@H](O)[C@@H](O)[C@H](N)C[C@@H]2N)[C@H](N)[C@@H](OCc2ccc3ccccc3c2)[C@@H]1OCc1ccc2ccccc2c1 | 8 (≈ 13.3 µM) | 8 (≈ 13.3 µM) | 4 (≈ 6.64 µM) | 8 (≈ 13.3 µM) | 4 (≈ 6.64 µM) | 8 (≈ 13.3 µM) | 8 (≈ 13.3 µM) | 4 (≈ 6.64 µM) | > 128 | 32 (≈ 53.1 µM) | > 128 | > 128 | > 128 | 16 (≈ 26.5 µM) | 16 (≈ 26.5 µM) | 64 (≈ 106 µM) | 16 (≈ 26.5 µM) | 8 (≈ 13.3 µM) | 64 (≈ 106 µM) | > 128 | MIC (Pseudomonas aeruginosa [20]; PA405, 24 h): 8 µg/mL (≈ 13.3 µM); MIC (Pseudomonas aeruginosa [21]; PA406, 24 h): 8 µg/mL (≈ 13.3 µM); MIC (Acinetobacter lwoffii [22]): 8 µg/mL (≈ 13.3 µM); MIC (Escherichia coli [23]): 32 µg/mL (≈ 53.1 µM) |
| NC[C@H]1O[C@H](O[C@H]2[C@H](O)[C@@H](OCc3ccc4ccccc4c3)[C@H](N)C[C@@H]2N)[C@H](N)[C@@H](O)[C@@H]1OCc1ccc2ccccc2c1 | 32 (≈ 53.1 µM) | 32 (≈ 53.1 µM) | 16 (≈ 26.5 µM) | 16 (≈ 26.5 µM) | 32 (≈ 53.1 µM) | 32 (≈ 53.1 µM) | 64 (≈ 106 µM) | 32 (≈ 53.1 µM) | > 128 | > 128 | > 128 | > 128 | > 128 | 64 (≈ 106 µM) | 128 (≈ 212 µM) | > 128 | 128 (≈ 212 µM) | 16 (≈ 26.5 µM) | > 128 | > 128 | MIC (Pseudomonas aeruginosa [20]; PA405, 24 h): 32 µg/mL (≈ 53.1 µM); MIC (Pseudomonas aeruginosa [21]; PA406, 24 h): 16 µg/mL (≈ 26.5 µM); MIC (Acinetobacter lwoffii [22]): 64 µg/mL (≈ 106 µM); MIC (Escherichia coli [23]): 128 µg/mL (≈ 212 µM) |
| NC[C@H]1O[C@H](O[C@H]2[C@H](O)[C@@H](OCc3ccccn3)[C@H](N)C[C@@H]2N)[C@H](N)[C@@H](OCc2ccccn2)[C@@H]1OCc1ccccn1 | > 128 | > 128 | > 128 | > 128 | > 128 | > 128 |  |  |  |  |  |  |  |  |  |  |  |  |  |  |  |
| GENTAMICIN |  |  |  |  |  |  |  |  |  |  |  |  |  |  |  |  |  |  |  |  | MIC (Acinetobacter lwoffii [9]): 4 µg/mL; MIC (Pseudomonas aeruginosa [10]): 1 µg/mL; MIC (Pseudomonas aeruginosa [11]): > 28 µg/mL; MIC (Pseudomonas aeruginosa [12]): 4 µg/mL; MIC (Klebsiella pneumoniae): 8 µg/mL; MIC (Escherichia coli [13]): 1 µg/mL; MIC (Escherichia coli [14]): 64 µg/mL; MIC (Pseudomonas aeruginosa [15]): 2 µg/mL; MIC (Pseudomonas aeruginosa [16]): 1 µg/mL; MIC (Pseudomonas aeruginosa [17]): 1 µg/mL; MIC (Pseudomonas aeruginosa [18]): 1 µg/mL; MIC (Pseudomonas aeruginosa [19]): 4 µg/mL; MIC (Pseudomonas aeruginosa [20]): < 0.125 µg/mL; MIC (Pseudomonas aeruginosa [21]): < 0.125 µg/mL; MIC (Citrobacter amalonaticus): > 128 µg/mL; MIC (Escherichia coli [24]): > 128 µg/mL; MIC (Klebsiella aerogenes): > 128 µg/mL |
